Results from US20240417411A1, “COMPOUNDS AND METHODS FOR TREATMENT OF VIRAL INFECTIONS” (priority 2023, published 2024).
Structures can show the parent of a compound that is named as a salt. Where two headings read alike, the source gives them in different places.

Assays:
[1] = in vitro; conditions: human, plasma
[2] = tested on: SARS-CoV2-NLuc; experiment: microbe, parasite or virus in culture; assay type: cell-based, SARS Coronavirus 2; conditions: Severe acute respiratory syndrome coronavirus 2, 48 h, read-out: SARS-CoV2 EC50 (nM)
[3] = in vitro; assay type: in vitro ADME; conditions: human, s9, pH 7.4
Experimental: Example D: GI S9 Stability […] The S9 metabolic reactions were initiated by the addition of the substrates to the S9 reaction mixture to a final concentration of 2 μM. […] Aliquots ([…]) of the diluted supernatant were analyzed on a Thermo Q-Exactive mass spectrometer as described below. Example F: Liquid Chromatography/Mass Spectroscopy Methods for S9 and Plasma Stability Quantification of test compounds, Reference Compound A (S9 stability assay nucleoside metabolite), and controls was performed by analyte/internal standard peak area ratio (PAR) values measured on a Thermo Q-Exactive mass spectrometer coupled to a Dionex UltiMate 3000 HPLC with a Leap Technologies HTC PAL autosampler. […] Mobile phase A consisted of 0.1% (v/v) formic acid in water. Mobile phase B consisted of 0.1% (v/v) formic acid in acetonitrile. Elution of analytes was achieved by a series of linear gradients of acetonitrile in water containing 0.10% (v/v) formic acid. The mass spectrometer was calibrated on a weekly basis and mass tolerance of 5 ppm was used.

[4] = in vitro; assay type: cell-based; conditions: human
Experimental: Example C: CC50 MT4 Cytotoxicity of the compounds was determined in uninfected cells using the cell viability reagent in a similar fashion as described before for other cell types ([…] et al., Antimicrob Agents Chemother. 2008,52(2):655-65). […] Cells were cultured for 4-5 days at 37° C. Following the incubation, the cells were allowed to equilibrate to 25° C., and cell viability was determined by adding Cell-Titer Glo viability reagent. The mixture was incubated for 10 min, and the luminescence signal was quantified using an Envision plate reader. Untreated cell and cells treated at 2 μM puromycin (Sigma, St. Louis, MO) serve as 100% and 0% cell viability control, respectively. The percent of cell viability was calculated for each tested compound concentration relative to the 0% and 100% controls and the CC50 value was determined by non-linear regression as a compound concentration reducing the cell viability by 50%.

[5] = tested on: RSV-Luc5; experiment: microbe, parasite or virus in culture; assay type: cell-based; conditions: human respiratory syncytial virus, NHBE, 72 h, read-out: RSV NHBE EC50 (nM)
[6] = tested on: Caco-2 cells (clone C2BBe1); conditions: human

In the case of `CCOC(=O)OC[C@H]1O[C@@](C#N)(c2ccc3c(N)ncnn23)[C@@H]2OC(=O)CC(C)(C)CC(=O)O[C@@H]21` [Compound C14, ((7aR,8R,10R,10aR)-10-(4-aminopyrrolo[2,1-f][1,2,4]triazin-7-yl)-10-cyano-4,4-dimethyl-2,6-dioxooctahydro-2H-furo[3,4-b][1,4]dioxonin-8-yl)methyl ethyl carbonate], the half-life at 2 μM [1] is reported as 27.1 min, the EC50 [2] is reported as greater than 50000 nM and the half-life at 2 μM [3] is reported as 4.03 min. For the same compound, the CC50 [4] was greater than 50 µM, the EC50 [5] was greater than 50000 nM and the “Caco2 A to B” value ([6]; Caco-2) was 4.27. The “Caco2 B to A” value ([6]; Caco-2) was 8.55.
For `CC(C)OC(=O)OC[C@H]1O[C@@](C#N)(c2ccc3c(N)ncnn23)[C@@H]2OC(=O)CN(C)CC(=O)O[C@@H]21` [Compound C4, ((7aR,8R,10R,10aR)-10-(4-aminopyrrolo[2,1-f][1,2,4]triazin-7-yl)-10-cyano-4-methyl-2,6-dioxooctahydro-2H-furo[3,4-b][1,4,7]dioxazonin-8-yl)methyl isopropyl carbonate], the half-life at 2 μM [1] was 65.6 min, the EC50 [2] was 6730 nM and the half-life at 2 μM [3] was 0.694 min. The CC50 [4] was greater than 50 µM, the EC50 [5] was 3120 nM and the “Caco2 A to B” value ([6]; Caco-2) was 0.023. The “Caco2 B to A” value ([6]; Caco-2) was 2.
Compound `CN1[C@@H]2CC[C@H]1C[C@@H](OC(=O)OC[C@H]1O[C@@](C#N)(c3ccc4c(N)ncnn34)[C@@H]3OC(=O)CC(C)(C)CC(=O)O[C@@H]31)C2` [Compound C47, ((7aR,8R,10R,10aR)-10-(4-aminopyrrolo[2,1-f][1,2,4]triazin-7-yl)-10-cyano-4,4-dimethyl-2,6-dioxooctahydro-2H-furo[3,4-b][1,4]dioxonin-8-yl)methyl ((1R,3s,5S)-8-methyl-8-azabicyclo[3.2.1]octan-3-yl) carbonate formate] has a half-life at 2 μM [1] of 60.2 min, an EC50 [2] greater than 50000 nM and a half-life at 2 μM [3] of 99.4 min. The CC50 [4] was greater than 50 µM, the EC50 [5] was greater than 50000 nM and the “Caco2 A to B” value ([6]; Caco-2, 2 h) was 0.04. The “Caco2 B to A” value ([6]; Caco-2, 2 h) was 5.19.
`CC(C)OC(=O)OC[C@H]1O[C@@](C#N)(c2ccc3c(N)ncnn23)[C@@H]2OC(=O)OCCCCCCOC(=O)O[C@@H]21` [Compound C53, ((12aR,13R,15R,15aR)-15-(4-aminopyrrolo[2,1-f][1,2,4]triazin-7-yl)-15-cyano-2,11-dioxodecahydrofuro[3,4-d][1,3,6,8]tetraoxacyclotetradecin-13-yl)methyl isopropyl carbonate] showed a half-life at 2 μM [1] of 317 min, an EC50 [2] of 9660 nM and a half-life at 2 μM [3] of 0.691 min. For the same compound, the CC50 [4] was greater than 50 µM, the EC50 [5] was 1330 nM and the “Caco2 A to B” value ([6]; Caco-2) was 9.28. For the same compound, the “Caco2 B to A” value ([6]; Caco-2) was 15.92.
Compound `COC(=O)[C@H]([C@@H](C)OC(=O)OC[C@H]1O[C@@](C#N)(c2ccc3c(N)ncnn23)[C@@H]2OC(=O)CC(C)(C)CC(=O)O[C@@H]21)N(C)C` [Compound C48, (2S,3R)-methyl 3-(((((7aR,8R,10R,10aR)-10-(4-aminopyrrolo[2,1-f][1,2,4]triazin-7-yl)-10-cyano-4,4-dimethyl-2,6-dioxooctahydro-2H-furo[3,4-b][1,4]dioxonin-8-yl)methoxy)carbonyl)oxy)-2-(dimethylamino)butanoate] has a half-life at 2 μM [1] of 20.3 min, an EC50 [2] greater than 50000 nM and a half-life at 2 μM [3] of 29.5 min. For the same compound, the CC50 [4] was greater than 50 µM, the EC50 [5] was greater than 50000 nM and the “Caco2 A to B” value ([6]; Caco-2) was 0.22. For the same compound, the “Caco2 B to A” value ([6]; Caco-2) was 1.81.
With `CC(C)OC(=O)OC[C@H]1O[C@@](C#N)(c2ccc3c(N)ncnn23)[C@@H]2OC(=O)OCCC=CCCOC(=O)O[C@@H]21` [Compound C52, ((12aR,13R,15R,15aR)-15-(4-aminopyrrolo[2,1-f][1,2,4]triazin-7-yl)-15-cyano-2,11-dioxo-4,5,8,9,12a,13,15,15a-octahydrofuro[3,4-d][1,3,6,8]tetraoxacyclotetradecin-13-yl)methyl isopropyl carbonate] the half-life [1] was 1580 min, the EC50 [2] was 7100 nM and the half-life at 2 μM [3] was 0.6 min. The CC50 [4] was greater than 50 µM, the EC50 [5] was 1600 nM and the “Caco2 A to B” value ([6]; Caco-2) was 6.77. For the same compound, the “Caco2 B to A” value ([6]; Caco-2) was 11.87.
In the case of `N#C[C@@]1(c2ccc3c(N)ncnn23)O[C@H](COC(=O)OC2CCOCC2)[C@H]2OC(=O)CCCC(=O)O[C@H]21` [Compound C16, ((7aR,8R,10R,10aR)-10-(4-aminopyrrolo[2,1-f][1,2,4]triazin-7-yl)-10-cyano-2,6-dioxooctahydro-2H-furo[3,4-b][1,4]dioxonin-8-yl)methyl (tetrahydro-2H-pyran-4-yl) carbonate], the half-life [1] is reported as 14.1 min, the EC50 [2] is reported as 14900 nM and the half-life at 2 μM [3] is reported as 0.605 min. The CC50 [4] was greater than 50 µM, the EC50 [5] was 20000 nM and the “Caco2 A to B” value ([6]; Caco-2) was 0.68. The “Caco2 B to A” value ([6]; Caco-2) was 5.08.
In the case of `CC(C)OC(=O)OC[C@H]1O[C@@](C#N)(c2ccc3c(N)ncnn23)[C@@H]2OC(=O)CCCC(=O)O[C@@H]21` [Compound C2, ((7aR,8R,10R,10aR)-10-(4-aminopyrrolo[2,1-f][1,2,4]triazin-7-yl)-10-cyano-2,6-dioxooctahydro-2H-furo[3,4-b][1,4]dioxonin-8-yl)methyl isopropyl carbonate], the half-life at 2 μM [1] is reported as 7.8 min, the EC50 [2] is reported as 9600 nM and the half-life at 2 μM [3] is reported as 0.616 min. The CC50 [4] was greater than 50 µM, the EC50 [5] was 3350 nM and the “Caco2 A to B” value ([6]; Caco-2) was 1.66. For the same compound, the “Caco2 B to A” value ([6]; Caco-2) was 7.32.
In the case of `COC(=O)[C@H]([C@@H](C)OC(=O)OC[C@H]1O[C@@](C#N)(c2ccc3c(N)ncnn23)[C@@H]2OC(=O)CCCC(=O)O[C@@H]21)N(C)C` [Compound C31, (2S,3R)-methyl 3-(((((7aR,8R,10R,10aR)-10-(4-aminopyrrolo[2,1-f][1,2,4]triazin-7-yl)-10-cyano-2,6-dioxooctahydro-2H-furo[3,4-b][1,4]dioxonin-8yl)methoxy)carbonyl)oxy)-2-(dimethylamino)butanoate 2,2,2-trifluoroacetate], the half-life at 2 μM [1] is reported as 15.5 min, the EC50 [2] is reported as 6060 nM and the half-life at 2 μM [3] is reported as 0.57 min. The CC50 [4] was greater than 50 µM, the EC50 [5] was 9190 nM and the “Caco2 A to B” value ([6]; Caco-2) was 0.49. For the same compound, the “Caco2 B to A” value ([6]; Caco-2) was 5.62.
For `CC1(C)CC(=O)O[C@H]2[C@@H](OC(=O)C1)[C@](C#N)(c1ccc3c(N)ncnn13)O[C@@H]2COC(=O)OC1CCOCC1` [Compound C33, ((7aR,8R,10R,10aR)-10-(4-aminopyrrolo[2,1-f][1,2,4]triazin-7-yl)-10-cyano-4,4-dimethyl-2,6-dioxooctahydro-2H-furo[3,4-b][1,4]dioxonin-8-yl)methyl (tetrahydro-2H-pyran-4-yl) carbonate], the half-life [1] was 609 min, the EC50 [2] was greater than 50000 nM and the half-life at 2 μM [3] was 29 min. The CC50 [4] was greater than 50 µM, the EC50 [5] was greater than 50000 nM and the “Caco2 A to B” value ([6]; Caco-2) was 0.41. For the same compound, the “Caco2 B to A” value ([6]; Caco-2) was 3.17.
For `CN1[C@@H]2CC[C@H]1C[C@@H](OC(=O)OC[C@H]1O[C@@](C#N)(c3ccc4c(N)ncnn34)[C@@H]3OC(=O)CCCC(=O)O[C@@H]31)C2` [Compound C30, ((7aR,8R,10R,10aR)-10-(4-aminopyrrolo[2,1-f][1,2,4]triazin-7-yl)-10-cyano-2,6-dioxooctahydro-2H-furo[3,4-b][1,4]dioxonin-8-yl)methyl ((1R,3s,5S)-8-methyl-8-azabicyclo[3.2.1]octan-3-yl) carbonate formate], the half-life at 2 μM [1] was 24 min, the EC50 [2] was 42500 nM and the half-life at 2 μM [3] was 0.575 min. The CC50 [4] was greater than 50 µM, the EC50 [5] was greater than 50000 nM and the “Caco2 A to B” value ([6]; Caco-2, 2 h) was 0.02. The “Caco2 B to A” value ([6]; Caco-2, 2 h) was 0.42.
Compound `CC(C)OC(=O)OC[C@H]1O[C@@](C#N)(c2ccc3c(N)ncnn23)[C@@H]2OC(=O)CC(C)(C)CC(=O)O[C@@H]21` [Compound C3, ((7aR,8R,10R,10aR)-10-(4-aminopyrrolo[2,1-f][1,2,4]triazin-7-yl)-10-cyano-4,4-dimethyl-2,6-dioxooctahydro-2H-furo[3,4-b][1,4]dioxonin-8-yl)methyl isopropyl carbonate] has a half-life at 2 μM [1] of 1240 min, an EC50 [2] of 12000 nM and a half-life at 2 μM [3] of 6 min. The CC50 [4] was greater than 50 µM, the EC50 [5] was greater than 50000 nM and the “Caco2 A to B” value ([6]; Caco-2) was 5.9. For the same compound, the “Caco2 B to A” value ([6]; Caco-2) was 7.3.
Work on `CC1(C)CC(=O)O[C@H]2[C@@H](OC(=O)C1)[C@](C#N)(c1ccc3c(N)ncnn13)O[C@@H]2COC(=O)OC1CCOC1` (stereo partly drawn) [Compound C40, ((7aR,8R,10R,10aR)-10-(4-aminopyrrolo[2,1-f][1,2,4]triazin-7-yl)-10-cyano-4,4-dimethyl-2,6-dioxooctahydro-2H-furo[3,4-b][1,4]dioxonin-8-yl)methyl (tetrahydrofuran-3-yl) carbonate] yielded a half-life at 2 μM [1] of 72.5 min, an EC50 [2] greater than 50000 nM and a half-life at 2 μM [3] of 5.83 min. For the same compound, the CC50 [4] was greater than 50 µM, the EC50 [5] was greater than 50000 nM and the “Caco2 A to B” value ([6]; Caco-2) was 0.69. The “Caco2 B to A” value ([6]; Caco-2) was 5.13.
